Experimental data: patent US9249102B2 (priority 2012, dated 2016)
Where two headings read alike, the source gives them in different places.

Tests used:
Haemonchus contortus = experiment: Method A: Haemonchus contortus L1 larvae, microtitre plate screen; conditions: 96 h, read-out: motility inhibition
[1] = test system: microfilaria of Dirofilaria immitis; experiment: Method F: microfilaria of Dirofilaria immitis, survival at 24 hours
[2] = survival of microfilaria at 24 hours

| Structure (SMILES) | inhibition at 5 µg/mL (Haemonchus contortus) [%] | EC50 [1, 2] [µg/mL] | EC50 [1] [µg/mL] |
| --- | --- | --- | --- |
| O=C(COc1ccc(Nc2ccc([N+](=O)[O-])c(C(F)(F)F)c2)cc1)N1CCN(Cc2cc3cc(C(F)(F)F)ccc3o2)CC1 [Compound 188, 2-(4-[[4-nitro-3-(trifluoromethyl)phenyl]amino]phenoxy)-1-(4-[[5-(trifluoromethyl)-1-benzofuran-2-yl]methyl]piperazin-1-yl)ethan-1-one] | ≥ 90 | < 5 | – |
| O=C(COc1ccc(Nc2ccc([N+](=O)[O-])c(C(F)(F)F)c2)cc1)N1CCN(C(=O)c2cc3cc(Cl)ccc3o2)CC1 [Compound 189, 1-[4-[(5-chloro-1-benzofuran-2-yl)carbonyl]piperazin-1-yl]-2-(4-[[4-nitro-3-(trifluoromethyl)phenyl]amino]phenoxy)ethan-1-one] | ≥ 90 | < 5 | – |
| O=C(CO[C@H]1CC[C@H](Nc2ccc([N+](=O)[O-])c(C(F)(F)F)c2)CC1)N1CCc2cc(C(F)(F)F)ccc2C1 [Compound 194, 2-[(4-[[4-nitro-3-(trifluoromethyl)phenyl]amino]cyclohexyl)oxy]-1-[6-(trifluoromethyl)-1,2,3,4-tetrahydroisoquinolin-2-yl]ethan-1-one] | ≥ 90 | < 1 | – |
| O=C(NCCO[C@H]1CC[C@H](Nc2ccc([N+](=O)[O-])c(C(F)(F)F)c2)CC1)C(=O)NCC1Cc2ccccc2O1 (stereo partly shown) [Compound 216] | ≥ 90 | < 1 | – |
| O=C(NCCO[C@H]1CC[C@H](Nc2ccc([N+](=O)[O-])c(C(F)(F)F)c2)CC1)C(=O)NCC1Cc2cc(F)ccc2O1 (stereo partly shown) [Compound 217] | ≥ 90 | – | < 1 |
| O=C(NCCO[C@H]1CC[C@H](Nc2ccc([N+](=O)[O-])c(C(F)(F)F)c2)CC1)C(=O)NCC1Cc2cc(Cl)ccc2O1 (stereo partly shown) [Compound 218, N^1-[(5-chloro-2,3-dihydro-1-benzofuran-2-yl)methyl]-N^2-[2-[(4-[[4-nitro-3-(trifluoromethyl)phenyl]amino]cyclohexyl)oxy]ethyl]ethanediamide] | ≥ 90 | < 1 | – |
| O=C(NCCO[C@H]1CC[C@H](Nc2ccc([N+](=O)[O-])c(C(F)(F)F)c2)CC1)C(=O)NCC1Cc2cc(C(F)(F)F)ccc2O1 (stereo partly shown) [Compound 219, N^1-[2-[(4-[[4-nitro-3-(trifluoromethyl)phenyl]amino]cyclohexyl)oxy]ethyl]-N^2-[[5-(trifluoromethyl)-2,3-dihydro-1-benzofuran-2-yl]methyl]ethanediamide] | ≥ 90 | < 1 | – |
| O=C(NCCO[C@H]1CC[C@H](Nc2ccc([N+](=O)[O-])c(C(F)(F)F)c2)CC1)C(=O)NCc1cc2ccccc2o1 [Compound 220, N^1-(benzofuran-2-ylmethyl)-N^2-(2-(4-(4-nitro-3-(trifluoromethyl)phenylamino)cyclohexyloxy)ethyl)oxalamide] | ≥ 90 | < 1 | – |
| O=C(NCCO[C@H]1CC[C@H](Nc2ccc([N+](=O)[O-])c(C(F)(F)F)c2)CC1)C(=O)NCc1cc2cc(C(F)(F)F)ccc2o1 [Compound 223, N^1-(2-(4-(4-nitro-3-(trifluoromethyl)phenylamino)cyclohexyloxy)ethyl)-N^2-((5-(trifluoromethyl)benzofuran-2-yl)methyl)oxalamide] | ≥ 90 | – | < 0.1 |
| O=C(NCCOc1ccc(Nc2ccc([N+](=O)[O-])c(C(F)(F)F)c2)cc1)C(=O)NCC1Cc2cc(F)ccc2O1 (stereo not shown) [Compound 225, N^1-((5-fluoro-2,3-dihydrobenzofuran-2-yl)methyl)-N^2-(2-(4-(4-nitro-3-(trifluoromethyl)phenylamino)phenoxy)ethyl)oxalamide] | ≥ 90 | < 1 | – |
| O=C(NCCOc1ccc(Nc2ccc([N+](=O)[O-])c(C(F)(F)F)c2)cc1)C(=O)NCC1Cc2cc(Cl)ccc2O1 (stereo not shown) [Compound 226, N^1-((5-chloro-2,3-dihydrobenzofuran-2-yl)methyl)-N^2-(2-(4-(4-nitro-3-(trifluoromethyl)phenylamino)phenoxy)ethyl)oxalamide] | ≥ 90 | < 1 | – |
